Values quoted from earlier work, collected in patent publication US20220241055A1, “DENTAL IMPLANT WITH ANTIBACTERIAL/ ANTIMICROBIAL PROPERTY HAVING METAL-ORGANIC FRAMEWORK (MOF) STRUCTURE AND PRODUCTION METHOD THEREOF” (RECEP TAYYIP ERDOGAN UNIVERSITESI, priority 2019, published 2022).

Conditions: conditions similar to body medium (SBF, 37° C.), stored in metal-organic framework structures

For `CC(C)Cc1ccc(C(C)C(=O)O)cc1` (stereo not shown) [ibuprofen], the “duration of release of the stored drug” value is given as 6 days.
